Where two headings read alike, the source gives them in different places. Values belong to the compound of their own block, whether it stands above or below them. Where a SMILES comes first, the peptide text is derived from it. [ ]: non-standard residue; d: D form. dNMeI = CC[C@@H](C)[C@@H](NC)C(=O)O; NMeF = CN[C@@H](Cc1ccccc1)C(=O)O; NMeL = CN[C@@H](CC(C)C)C(=O)O; dNMeL = CN[C@H](CC(C)C)C(=O)O; dNMeV = CN[C@@H](C(=O)O)C(C)C; NMeA = CN[C@@H](C)C(=O)O; dNMeA = CN[C@H](C)C(=O)O; Sar = CNCC(=O)O
How the values were obtained:
[1] = Parallel artificial membrane permeability assay (PAMPA); conditions: average of three replicates; 16-20 hours incubation, 5% DMSO PBS
[2] = Plasma exposure, oral bioavailability and tolerability after single-dose IV, SQ and PO administration; conditions: in vivo
[3] = PAMPA
[4] = PAMPA, PAMPA_Papp_Avg (apparent permeability)
in vivo = conditions: male, Swiss Albino, mouse; for level at 0.08 h / level at 0.25 h / level at 0.5 h / level at 1 h / level at 3 h / level at 5 h / level at 8 h / level at 24 h: Plasma concentration
[5] = mouse, in vivo, iv
[6] = mouse, in vivo

Structure (SMILES): CC[C@@H](C)[C@H]1NC(=O)[C@@H](CC(C)C)N(C)C(=O)[C@@H]2CCCN2C(=O)[C@H](C(C)C)NC(=O)[C@@H](C)N(C)C(=O)[C@@H]2CCCN2C(=O)[C@@H](CC(C)C)NC(=O)[C@@H](C(C)C)N(C)C(=O)[C@@H]2CCCN2C(=O)[C@H](C)NC(=O)[C@H](C(C)C)NC(=O)[C@@H]2CCCN2C1=O [SEQ ID NO 117, VP*liPVAP*vlP*a] (cyclo(AP[dNMeV][dL]P[dNMeA]VP[dNMeL][dI]PV))
PAMPA_Papp_Avg (apparent permeability) [1]: 1 nm/s

Structure (SMILES): CC[C@@H](C)[C@H]1NC(=O)[C@@H]2CCCN2C(=O)[C@@H]([C@H](C)CC)NC(=O)CN(C)C(=O)[C@H](CC(C)C)NC(=O)[C@@H](Cc2ccccc2)NC(=O)[C@H](CC(C)C)N(C)C(=O)[C@H]2CCCN2C(=O)[C@@H](CC(C)C)NC(=O)[C@H](CC(C)C)NC(=O)[C@H]2CCCN2C1=O [Design D11.2] (cyclo(L[Sar][dI]P[dI][dP]L[dL][dP][NMeL][dF]))
bioavailability [2]: 7.5 to 11%

Structure (SMILES): CC(C)C[C@@H]1C(=O)N[C@H](CC(C)C)C(=O)N2CCC[C@@H]2C(=O)N2CCC[C@H]2C(=O)N(C)[C@H](CC(C)C)C(=O)N[C@H](CC(C)C)C(=O)N2CCC[C@@H]2C(=O)N2CCC[C@H]2C(=O)N1C [Design D8.4, pP*llpP*ll] (cyclo([dNMeL][dL][dP]P[dNMeL][dL][dP]P))
PAMPA_Papp_Avg (apparent permeability) [3]: 1.36 nm/s
Papp [4]: 0.358 nm/s

Structure (SMILES): CC(C)C[C@@H]1NC(=O)[C@H](CC(C)C)N(C)C(=O)[C@H]2CCCN2C(=O)[C@H]2CCCN2C(=O)[C@H](CC(C)C)NC(=O)[C@@H](CC(C)C)N(C)C(=O)[C@@H](C)NC(=O)[C@@H](CC(C)C)N(C)C(=O)[C@H]2CCCN2C(=O)[C@@H](CC(C)C)NC(=O)[C@@H](C)N(C)C1=O [Design D11.15, Lpp*LL*alp*la*l] (cyclo(L[dNMeA][dL][dP][dNMeL][dA][dNMeL]L[dP][dP][NMeL]))
PAMPA_Papp_Avg (apparent permeability) [1]: 12.9 nm/s

Results, then the compound that gave them:

level at 0.08 h (in vivo; iv, 1 mg/kg): 3.75 µg/mL
level at 0.25 h (in vivo; iv, 1 mg/kg): 3.35 µg/mL
level at 0.5 h (in vivo; iv, 1 mg/kg): 2.01 µg/mL
level at 1 h (in vivo; iv, 1 mg/kg): 1.14 µg/mL
level at 3 h (in vivo; iv, 1 mg/kg): 0.512 µg/mL
level at 5 h (in vivo; iv, 1 mg/kg): 0.267 µg/mL
level at 8 h (in vivo; iv, 1 mg/kg): 0.235 µg/mL
level at 24 h (in vivo; iv, 1 mg/kg): 0.0276 µg/mL
level at 0.08 h (in vivo; po, 10 mg/kg): 0.0696 µg/mL
level at 0.25 h (in vivo; po, 10 mg/kg): 0.75 µg/mL
level at 0.5 h (in vivo; po, 10 mg/kg): 2.52 µg/mL
level at 1 h (in vivo; po, 10 mg/kg): 2.96 µg/mL
level at 3 h (in vivo; po, 10 mg/kg): 3.5 µg/mL
level at 5 h (in vivo; po, 10 mg/kg): 2.54 µg/mL
level at 8 h (in vivo; po, 10 mg/kg): 1.48 µg/mL
level at 24 h (in vivo; po, 10 mg/kg): 0.095 µg/mL
bioavailability (in vivo; sc, 5 mg/kg): 8.48%
level at 0.08 h (in vivo; sc, 5 mg/kg): 0.0124 µg/mL
level at 1 h (in vivo; sc, 5 mg/kg): 0.0441 µg/mL
level at 3 h (in vivo; sc, 5 mg/kg): 0.128 µg/mL
level at 5 h (in vivo; sc, 5 mg/kg): 0.148 µg/mL
level at 8 h (in vivo; sc, 5 mg/kg): 0.114 µg/mL
level at 24 h (in vivo; sc, 5 mg/kg): 0.0576 µg/mL
half-life [5]: 5.58 h
PAMPA_Papp_Avg (apparent permeability) [3]: 14.8 nm/s
F ([6]; 10 mg/kg): 40.06%
AUC0-inf ([6]; iv, 1 mg/kg): 7.18715 µg·h/mL
AUC0-last ([6]; iv, 1 mg/kg): 6.96511 µg·h/mL
AUCExtra ([6]; iv, 1 mg/kg): 3.09%
C0 ([6]; iv, 1 mg/kg): 3.95756 µg/mL
Cl ([6]; iv, 1 mg/kg): 0.139 L/h/kg
MRT0-last ([6]; iv, 1 mg/kg): 4.64 h
T½ ([6]; iv, 1 mg/kg): 5.58 h
Vd ([6]; iv, 1 mg/kg): 1.12 L/kg
AUC0-inf ([6]; po, 10 mg/kg): 28.79358 µg·h/mL
AUC0-last ([6]; po, 10 mg/kg): 28.24238 µg·h/mL
AUCExtra ([6]; po, 10 mg/kg): 1.91%
MRT0-last ([6]; po, 10 mg/kg): 6.32 h
AUC0-inf ([6]; sc, 5 mg/kg): 3.04715 µg·h/mL
AUC0-last ([6]; sc, 5 mg/kg): 2.12281 µg·h/mL
AUCExtra ([6]; sc, 5 mg/kg): 30.33%
MRT0-last ([6]; sc, 5 mg/kg): 10.71 h
Structure (SMILES): CC[C@@H](C)[C@H]1NC(=O)[C@H]([C@@H](C)CC)NC(=O)[C@H](CC(C)C)N(C)C(=O)[C@H]2CCCN2C(=O)[C@@H]([C@H](C)CC)NC(=O)[C@@H]([C@H](C)CC)N(C)C(=O)[C@H](CC(C)C)NC(=O)[C@H]2CCCN2C(=O)[C@@H]2CCCN2C(=O)[C@H](C(C)C)NC(=O)[C@H]2CCCN2C1=O [Design D11.3, VPpL*iip*LIip] (cyclo(I[dI][dP]VP[dP]L[dNMeI][dI][dP][NMeL]))

Papp [4]: 25.2 nm/s
Structure (SMILES): CC[C@H](C)[C@@H]1NC(=O)[C@@H](C(C)C)NC(=O)[C@@H]2CCCN2C(=O)[C@@H](CC(C)C)N(C)C(=O)[C@@H](C(C)C)NC(=O)[C@H](CC(C)C)N(C)C(=O)[C@H]2CCCN2C(=O)[C@@H](C)NC(=O)[C@H](Cc2ccccc2)N(C)C(=O)[C@H]2CCCN2C1=O [Design D10.3., Ip*Fap*Lv*lPv] (cyclo(I[dP][NMeF][dA][dP][NMeL][dV][dNMeL]P[dV]))

Papp [4]: 5.44 nm/s
Structure (SMILES): CC[C@H](C)[C@@H]1NC(=O)[C@H]2CCCN2C(=O)[C@@H]2CCCN2C(=O)[C@@H](C(C)C)NC(=O)[C@@H](C)N(C)C(=O)[C@H](C)N(C)C(=O)[C@@H](CC(C)C)N(C)C(=O)[C@@H](C(C)C)NC1=O [Design D8.26, v*l*A*avPpI] (cyclo(I[dV][dNMeL][NMeA][dNMeA][dV]P[dP]))

Papp [4]: 39.2 nm/s
Structure (SMILES): CC(C)C[C@@H]1NC(=O)[C@@H]2CCCN2C(=O)[C@@H](Cc2ccccc2)NC(=O)[C@H](C)N(C)C(=O)[C@H](CC(C)C)NC(=O)[C@H](CC(C)C)N(C)C(=O)[C@@H](C)NC(=O)[C@@H](CC(C)C)NC(=O)[C@@H]2CCCN2C(=O)[C@@H](Cc2ccccc2)NC1=O [SEQ ID NO 108, LfPla*LL*AfP] (cyclo(L[NMeA][dF]PL[dF]P[dL][dA][NMeL]))

Papp [4]: 11 nm/s
Structure (SMILES): CC[C@H](C)[C@@H]1NC(=O)[C@H](C(C)C)NC(=O)[C@@H](CC(C)C)N(C)C(=O)[C@H](Cc2ccccc2)NC(=O)[C@@H](CC(C)C)N(C)C(=O)[C@@H](C)N(C)C(=O)[C@H]2CCCN2C(=O)[C@@H]2CCCN2C(=O)[C@H](CC(C)C)NC(=O)[C@@H](C)N(C)C(=O)[C@@H]2CCCN2C1=O [Design D11.20, P*aLPp*a*lF*lVI] (cyclo(F[dNMeL]VIP[dNMeA]LP[dP][dNMeA][dNMeL]))

Reference: patent US20260274895A1, “DE NOVO DESIGNED MEMBRANE-TRAVERSING AND ORALLY BIOAVAILABLE MACROCYCLES” (UNIVERSITY OF WASHINGTON, priority 2022, published 2026)
